Reference: PMC4932537, “Search for Potent and Selective Aurora A Inhibitors Based on General Ser/Thr Kinase Pharmacophore Model” (Pharmaceuticals, 2016)
Counter-ions that a name gives are not always drawn. Like-named read-outs stand apart in the source and are kept apart here.

Experiments:
[1] = target: T1, Haspin (Homo sapiens, UniProt Q8TF76); assay: Haspin kinase inhibition; type: biochemical; details: Table 1
T1 sequence (Q8TF76 1-798): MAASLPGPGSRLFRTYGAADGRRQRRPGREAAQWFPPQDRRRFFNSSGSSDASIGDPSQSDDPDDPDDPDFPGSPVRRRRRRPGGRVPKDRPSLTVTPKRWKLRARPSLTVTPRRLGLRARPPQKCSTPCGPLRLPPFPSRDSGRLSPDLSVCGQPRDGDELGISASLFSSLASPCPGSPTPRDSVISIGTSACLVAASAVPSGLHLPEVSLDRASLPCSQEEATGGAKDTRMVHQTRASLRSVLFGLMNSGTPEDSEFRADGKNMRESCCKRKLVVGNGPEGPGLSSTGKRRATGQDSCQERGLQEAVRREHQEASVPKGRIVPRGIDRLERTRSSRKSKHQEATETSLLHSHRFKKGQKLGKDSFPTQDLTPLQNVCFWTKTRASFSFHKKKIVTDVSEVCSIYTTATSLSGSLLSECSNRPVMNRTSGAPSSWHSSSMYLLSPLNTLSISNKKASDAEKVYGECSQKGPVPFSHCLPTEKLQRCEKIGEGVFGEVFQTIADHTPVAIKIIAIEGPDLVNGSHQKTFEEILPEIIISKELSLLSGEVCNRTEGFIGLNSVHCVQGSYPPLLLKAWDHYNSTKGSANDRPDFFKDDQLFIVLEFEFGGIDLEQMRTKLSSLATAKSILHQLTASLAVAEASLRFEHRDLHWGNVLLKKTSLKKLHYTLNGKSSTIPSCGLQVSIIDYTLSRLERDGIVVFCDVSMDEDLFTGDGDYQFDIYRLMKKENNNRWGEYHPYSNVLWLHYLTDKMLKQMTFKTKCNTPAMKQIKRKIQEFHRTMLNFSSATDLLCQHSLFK
Excerpt: Table 1 Activity of compounds fitting to general pharmacophore model against selected Ser/Thr kinases. | column: Haspin, IC50, μM

[2] = target: Aurora B (Homo sapiens, UniProt Q96GD4); assay: Aurora B kinase inhibition; type: biochemical; details: Table 1
[3] = target: T2, Aurora A (Homo sapiens, UniProt O14965); assay: Aurora A kinase inhibition (biochemical assay)
T2 sequence (O14965 1-403): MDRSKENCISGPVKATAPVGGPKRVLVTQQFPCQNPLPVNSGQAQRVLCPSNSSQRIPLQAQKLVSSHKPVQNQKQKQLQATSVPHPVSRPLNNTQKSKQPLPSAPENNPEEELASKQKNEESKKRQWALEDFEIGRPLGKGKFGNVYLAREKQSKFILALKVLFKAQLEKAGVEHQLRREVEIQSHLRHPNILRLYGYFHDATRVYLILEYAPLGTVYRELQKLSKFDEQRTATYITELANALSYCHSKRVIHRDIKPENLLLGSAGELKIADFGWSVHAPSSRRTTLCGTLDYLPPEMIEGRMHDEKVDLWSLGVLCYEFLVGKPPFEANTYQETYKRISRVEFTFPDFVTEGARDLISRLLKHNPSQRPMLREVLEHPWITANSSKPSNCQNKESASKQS

[4] = test system: PC3 (prostate adenocarcinoma); assay: MTT cytotoxicity, PC3; type: cell-based; details: 72 h
Excerpt: (§1) All cells lines were purchased in ATCC (Manassas, VA, USA), except for human primary fibroblasts (HFB), which were a generous gift from Dashinimaev E.B. (Koltsov Institute of Developmental Biology). H1299 (lung adenocarcinoma), H23 (lung adenocarcinoma), Colo320 (colon carcinoma), RS4;11 (acute lymphoblastic leukemia), PC3 (prostate adenocarcinoma) and HL-60 (acute promyelocytic leukemia) were cultivated in RPMI-1640 medium, with addition of 10% fetal calf serum (HyClone, South Logan, Utah, USA) and 2 mM L-Glutamine at 37 °C, 5% CО2. MDA-MB-453 (mammary adenocarcinoma), A549 (lung adenocarcinoma), HCT-116 (colon carcinoma), A431 (epidermoid carcinoma), MDA-MB-231 (mammary adenocarcinoma), BxPC3 (pancreatic adenocarcinoma), MEF (mouse embryonic fibroblasts, SV-40 immortalized), MEF Bax^−/−/Bak^−/− knockout cells (mouse embryonic fibroblasts, SV-40 immortalized, resistant to apoptosis) were cultivated in DMEM medium, with addition of 10% fetal calf serum (HyClone) and 2 mM L-Glutamine at 37 °C, 5% CО2.
(§2) Cells were seeded in 96-well plates (Corning, NY, USA): 5000 cells per well for adhesive cultures and cells, 25,000 cells per well for suspension cultures. Analyzed substances were added in 0.1–50 μM concentration range, with 2 × dilutions, and incubated for 72 h at 37 °C, 5% CО2. After incubation 20 uL of 5 mg/mL of water solution of 3-(4,5-dimethylthiazol-2-yl)-2,5-diphenyltetrazolium bromide (MTT, PANEKO, Moscow, Russia) was added to the cells and they were incubated for additional 4 h. After the incubation the medium was aspirated, cells were dissolved in 100 uL of DMSO and the optical density was measured at 570 nm with a МultiscanFC plate reader (ThermoScientific, Cambridge, MA, USA). The percentage of surviving cells at each dose was calculated by dividing the optical density of treated cells by the optical density of untreated control (which was taken as 100%). The IC50s were calculated in GraphPad Prism 5.0.

[5] = test system: MDA-MB231 (mammary adenocarcinoma); assay: MTT cytotoxicity, MDA-MB231; type: cell-based; details: Homo sapiens, MDA-MB-231, 72 h
Excerpt: as §1, §2

[6] = test system: A-549 (lung adenocarcinoma); assay: MTT cytotoxicity, A-549; type: cell-based; details: Homo sapiens, A549; A-549, MTT, 72 h
Excerpt: as §1, §2

[7] = test system: RS4;11 (acute lymphoblastic leukemia); assay: MTT cytotoxicity, RS4;11; type: cell-based; details: Homo sapiens; RS4;11, MTT, 72 h
Excerpt: as §1, §2

[8] = MTT cytotoxicity, MEF WT; type: cell-based; details: mouse
Excerpt: as §1, §2

[9] = test system: H23 (lung adenocarcinoma); assay: MTT cytotoxicity, H23; type: cell-based; details: 72 h
Excerpt: as §1, §2

[10] = test system: HCT-116 (colon carcinoma); assay: MTT cytotoxicity, HCT-116; type: cell-based; details: Homo sapiens; HCT-116, MTT, 72 h
Excerpt: as §1, §2

[11] = test system: A431 (epidermoid carcinoma); assay: MTT cytotoxicity, A431; type: cell-based; details: Homo sapiens, A-431, 72 h
Excerpt: as §1, §2

[12] = MTT cytotoxicity, HFB; type: cell-based; details: human, human primary fibroblasts (HFB)
Excerpt: as §1, §2

[13] = test system: HL-60 (acute promyelocytic leukemia); assay: MTT cytotoxicity, HL-60; type: cell-based; details: Homo sapiens; HL-60, MTT, 72 h
Excerpt: as §1, §2

[14] = test system: MDA-MB-453 (mammary adenocarcinoma); assay: MTT cytotoxicity, MDA-MB-453; type: cell-based; details: Homo sapiens; MDA-MB-453, MTT, 72 h
Excerpt: as §1, §2

[15] = test system: BxPC3 (pancreatic adenocarcinoma); assay: MTT cytotoxicity, BxPC3; type: cell-based; details: Homo sapiens, BXPC-3, 72 h
Excerpt: as §1, §2

[16] = test system: Colo-320 (colon carcinoma); assay: MTT cytotoxicity, Colo-320; type: cell-based; details: Homo sapiens; Colo-320, MTT, 72 h
Excerpt: as §1, §2

[17] = MTT cytotoxicity, MEFs Dko; type: cell-based; details: mouse, MEFs Dko (bax−/−bak−/−)
Excerpt: as §1, §2

[18] = test system: H1299 (lung adenocarcinoma); assay: MTT cytotoxicity, H1299; type: cell-based; details: Homo sapiens, NCI-H1299, 72 h
Excerpt: as §1, §2

[19] = Table 1, read-out: Aurora A, IC50
[20] = Table 2, Mean ± SEM, four repeats, read-out: Aurora A kinase inhibition IC50

Aurora B, sequence (Q96GD4 whole entry): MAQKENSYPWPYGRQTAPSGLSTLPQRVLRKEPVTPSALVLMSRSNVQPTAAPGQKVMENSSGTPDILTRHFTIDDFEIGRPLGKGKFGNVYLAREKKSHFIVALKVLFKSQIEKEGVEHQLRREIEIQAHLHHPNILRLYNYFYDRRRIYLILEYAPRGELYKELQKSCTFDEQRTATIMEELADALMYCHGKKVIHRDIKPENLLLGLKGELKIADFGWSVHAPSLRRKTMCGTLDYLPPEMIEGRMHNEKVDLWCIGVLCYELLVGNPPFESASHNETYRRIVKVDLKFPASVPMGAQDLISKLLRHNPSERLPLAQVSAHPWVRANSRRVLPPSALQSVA

CCCc1cnc(Nc2cccc(C3CCN(C(=O)[C@@H](C)N)CC3)n2)s1 [Compound 6, (R)-2-Amino-1-(4-(6-(5-propylthiazol-2-ylamino)-pyridin-2-yl)piperidin-1-yl)propan-1-one]
IC50 [1]: 1120 ± 110 nM
IC50 [2]: 1750 ± 180 nM
IC50 [3, 19]: 1670 ± 170 nM

CCCc1cnc(Nc2cccc(C3CCN(C(=O)CNC)CC3)n2)s1 [Compound 5, 2-(Methylamino)-1-(4-(6-(5-propylthiazol-2-ylamino)pyridin-2-yl)piperidin-1-yl)ethanone]
IC50 [1]: 430 ± 34 nM
IC50 [2]: 910 ± 80 nM
IC50 [3, 19]: 1440 ± 130 nM

CCCc1cnc(Nc2cccc(C3CCN(C(=O)CN)CC3)n2)s1 [Compound 4, 2-Amino-1-(4-(6-(5-propylthiazol-2-ylamino)pyridin-2-yl)piperidin-1-yl)ethanone]
IC50 [1]: 80 ± 8 nM
IC50 [2]: 1720 ± 190 nM
IC50 [3, 19]: 2080 ± 250 nM

CCCc1cnc(Nc2cc(CC)nc(C3CCN(C(=O)C(C)(C)N)CC3)n2)s1 [Compound 8, 2-Amino-1-(4-(4-ethyl-6-(5-propylthiazol-2-ylamino)pyrimidin-2-yl)piperidin-1-yl)-2-methylpropan-1-one]
IC50 [1]: 2900 ± 430 nM
IC50 [2]: 2050 ± 240 nM
IC50 [3, 19]: 3580 ± 430 nM

Cc1cc(Nc2nccs2)nc(CC2CCN(C(=O)c3cccc(Cl)c3F)CC2)n1 [Compound 12, (3-Chloro-2-fluoro-phenyl)-{4-[4-methyl-6-(thiazol-2-ylamino)-pyrimidin-2-ylmethyl]-piperidin-1-yl}-methanone]
IC50 [4]: 6000 ± 700 nM
IC50 [5]: 28200 ± 300 nM
melting point: 207 to 209 °C
IC50 [6]: 10000 ± 1200 nM
IC50 [7]: 1500 ± 200 nM
IC50 at 48 h [8]: 5800 ± 500 nM
IC50 [9]: 6800 ± 500 nM
IC50 [10]: 6500 ± 700 nM
IC50 [11]: 10200 ± 1200 nM
IC50 at 72 h [12]: 3800 ± 400 nM
IC50 [13]: 39800 ± 3400 nM
IC50 [14]: 16300 ± 1700 nM
IC50 [15]: 6000 ± 590 nM
IC50 [3, 20]: 35.1 ± 0.36 nM
IC50 [16]: 2000 ± 150 nM
IC50 at 48 h [17]: 11800 ± 1200 nM
IC50 [18]: 5000 ± 400 nM

CCCc1cnc(Nc2cccc(C3CCN(C(=O)CN(C)C)CC3)n2)s1 [Compound 3, 2-(Dimethylamino)-1-(4-(6-(5-propylthiazol-2-ylamino)pyridin2-yl)piperidin-1-yl)ethanone]
IC50 [1]: 7060 ± 680 nM
IC50 [2]: 1760 ± 160 nM
IC50 [3, 19]: 1950 ± 220 nM

Cc1cc(Nc2cccc(CC3CCN(C(=O)c4cccc(Cl)c4F)CC3)n2)[nH]n1 [Compound 15, (3-Chloro-2-fluoro-phenyl)-{4-[6-(5-methyl-2H-pyrazol-3-ylamino)-pyridin-2-ylmethyl]-piperidin-1-yl}-Methanone]
IC50 [4]: 9700 ± 1000 nM
IC50 [5]: > 50000 nM
melting point: 120 to 122 °C
IC50 [6]: 5700 ± 600 nM
IC50 [7]: 100 ± 20 nM
IC50 at 48 h [8]: 900 ± 80 nM
IC50 [9]: > 50000 nM
IC50 [10]: 2800 ± 300 nM
IC50 [11]: 6800 ± 700 nM
IC50 at 72 h [12]: 3000 ± 200 nM
IC50 [13]: 38800 ± 3200 nM
IC50 [14]: 5700 ± 600 nM
IC50 [15]: 7200 ± 600 nM
IC50 [3, 20]: 17.5 ± 2.1 nM
IC50 [16]: 1000 ± 120 nM
IC50 at 48 h [17]: 3000 ± 200 nM
IC50 [18]: 3700 ± 300 nM

O=C(C1CNCCO1)N1CCC(c2cccc(Nc3ncc(-c4ccccc4)s3)n2)CC1 (stereo not shown) [Compound 10, Morpholin-2-yl(4-(6-(5-phenylthiazol-2-ylamino)pyridin-2-yl)piperidin-1-yl)methanone]
IC50 [1]: 7800 ± 810 nM
IC50 [2]: 840 ± 90 nM
IC50 [3, 19]: 8380 ± 840 nM

CCCc1cnc(Nc2cc(C(C)C)nc(C3CCN(C(=O)C(C)(C)N)CC3)n2)s1 [Compound 7, 2-Amino-1-(4-(4-isopropyl-6-(5-propylthiazol-2-ylamino)pyrimidin-2-yl)piperidin-1-yl)-2-methylpropan-1-one]
IC50 [1]: 3670 ± 370 nM
IC50 [2]: 2250 ± 230 nM
IC50 [3, 19]: 2790 ± 300 nM

CCCc1cnc(Nc2cccc(C3CCN(C(=O)C(C)(C)N)CC3)n2)s1 [Compound 1, 2-Amino-2-methyl-1-(4-(6-(5-propylthiazole-2-ylamino)pyridin-2-yl)piperidin-1-yl)propan-1-one hydrochloride]
IC50 [1]: 1490 ± 150 nM
IC50 [2]: 1450 ± 170 nM
IC50 [3, 19]: 2060 ± 150 nM

CC(C)(N)C(=O)N1CCC(c2cccc(Nc3ncc(-c4ccccc4)s3)n2)CC1 [Compound 9, 2-Amino-2-methyl-1-(4-(6-(5-phenylthiazol-2-ylamino)pyridine-2-yl)propan-1-one hydrochloride]
IC50 [1]: 270 ± 19 nM
IC50 [2]: 8020 ± 800 nM
IC50 [3, 19]: 3170 ± 330 nM
